Values of other authors, collected in patent US7148350B2, “Compounds in the form of homodimeric or heterodimeric pro-drugs; process for obtaining these pro-drugs and their acceptable pharmaceutical salts and use of compounds in the treatment of phosphodiesterases-mediated diseases or dysfunction” (Cristalia Prod.Qui.Farm. LTDA, priority 2000, dated 2006).
Values belong to the compound of their own block, whether it stands above or below them.

Columns and labels:
[1] = system: granulocyte progenitor cells and macrophages; details: dimer versus monomers
[2] = dimer versus isolated monomers
[3] = after administration; limited by pre-systemic metabolism
erectile dysfunction = details: oral administration; patients with organic erectile dysfunction

EC50 [2]: 0.14 nM
time after which plasmatic concentration is no longer detected (intravenous administration, 50 or 100 mg): 30 min
detection of the dimer after oral administration (oral administration): not detected
Compound: Cc1cn([C@H]2C[C@H](N=[N+]=[N-])[C@@H](COP(=O)(O)OC[C@@H]3CC[C@H](n4cnc5c(=O)[nH]cnc54)O3)O2)c(=O)[nH]c1=O [AZT-P-DDI]
less toxicity (fold) [1]: 10 times

absolute bioavailability [3]: 40%
Compound: CCCc1nn(C)c2c(=O)[nH]c(-c3cc(S(=O)(=O)N4CCN(C)CC4)ccc3OCC)nc12 [sildenafil]

EC50 [2]: 3.9 nM
oral bioavailability (after oral administration of AZT-P-DDI): 64.7–67.3%
Compound: Cc1cn([C@H]2C[C@H](N=[N+]=[N-])[C@@H](CO)O2)c(=O)[nH]c1=O [AZT, zidovudine]

EC50 [2]: 460 nM
Compound: O=c1[nH]cnc2c1ncn2[C@H]1CC[C@@H](CO)O1 [DDI, didanosine]

Compound: COC(=O)[C@@H]1[C@H]2C[C@H]3c4[nH]c5ccccc5c4CCN3C[C@@H]2CC[C@@H]1O [Yohimbine]
effectiveness (erectile dysfunction): low
